This note sets out measurements from patent publication US20050288307A1, “Anti-viral compounds” (priority 2002, published 2005).

Where two headings read alike, the source gives them in different places.

One data set concerns the target Akt/PKB (Homo sapiens, UniProt P31749). Description: Kinase specificity panel: Akt/PKB. In kind it is biochemical. The note with it: Table 2.
In the next data set the target is CDK1/Cyclin B (Homo sapiens, UniProt P06493). The experiment in a line: CDK1/cyclin B kinase assay (GST-Rb phosphorylation).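 Also: Enzyme: His-tagged CDK1/Cyclin B co-expressed in baculovirus-infected Sf9 insect cells, purified via metal-chelate chromatography.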
The target of a further data set is SAPK2a (Homo sapiens, UniProt Q16539). The experiment in a line: Kinase specificity panel: SAPK2a. In kind it is biochemical. The note with it: Table 2.
A further data set concerns the target CDK4/Cyclin D1 (Homo sapiens, UniProt P11802). Description: CDK4/cyclin D1 kinase assay (GST-Rb phosphorylation). In kind it is biochemical.
In a further data set the test system is CaMKII. The class given is biochemical. Conditions: Table 2.
The next data set has as its target ERK2 (Homo sapiens, UniProt P28482). The experiment in a line: Kinase specificity panel: ERK2. The note with it: Table 2. In kind it is biochemical.
A further data set has as its target T1, PKC (Homo sapiens, UniProt P17252).
T1 construct: 6xHis (C); made in house; host or cells: Sf9 insect cells (baculovirus)
Description: PKC kinase assay (Histone 3 phosphorylation). The class given is biochemical. The note with it: Table 2. As to the method: PKCα kinase activity may be measured by the incorporation of radio-labeled phosphate in Histone 3, as described. The reaction mixture (total volume 65 μl) consist of 50 mM Tris-HCl, 1 mM Calcium acetate, 3 mM DTT, 0.03 mg/ml Phosphatidylserine, 2.4 μg/ml PMA, 0.04% NP40, 12 mM Mg/Cl, purified PKCα-100 ng, Histone 3, 0.2 mg/ml, 100 μM ATP, 0.2 μCi [γ-^32P]-ATP. The reaction is carried over 15 min at 37° C. in microplate shaker and is stopped by adding 10 μl 75 mM orthophosphoric acid and placing the plate on ice. 50 μl of the reaction mixture is transferred onto P81 filterplate and after washing off the free radioactive phosphate (3 times with 200 μl 75 mM orthophosphoric acid per well) 50 μl of scintillation liquid (Microscint 40) were added to each well and the radioactivity is measured on Scintillation counter (Topcount, HP).

Another data set concerns HIV-1. Description: Anti-viral cell-based assays. Conditions: result in words.
For the next data set, the target named is CDK9/cyclin T1 (Homo sapiens, UniProt P50750). The experiment in a line: CDK9 assay (CTD peptide substrate). In kind it is biochemical. Put shortly:
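Recombinant human CDK7/cyclin H or CDK9/cyclin T1 with biotinylated CTD peptide, 45 min at 30 °C, pH 7.2 MOPS buffer, 15 mM MgCl2, 100 μM ATP with trace [γ-32P]ATP. Avidin capture on P81 filters, phosphoric acid washes, 32P incorporation by scintillation counting.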

Data set [1] in a line: Compound cytotoxicity in PBMC assay plates (MTS cell viability). The note with it: human, TC50 (concentration decreasing cell viability by 50%).
For a further data set, the target named is T2, CDK2/Cyclin E (Homo sapiens, UniProt P24941).
T2 construct: His; made in house; host or cells: Sf9 insect cells (baculovirus)
Description: CDK2/cyclin E kinase assay (GST-Rb phosphorylation).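 Also: enzyme source: His-tagged CDK2/cyclin E complex co-expressed recombinantly in Sf9 insect cells using baculovirus constructs.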 The class given is biochemical.

A further data set deals with HIV-1RoJo/PBMC. Description: Anti-HIV efficacy in fresh human PBMCs, strain RoJo. The class given is cell-based. Conditions: HIV-1RoJo/PBMC; for IC50: Human immunodeficiency virus 1, read-out: IC50 (concentration inhibiting virus replication by 50%); for IC90: Human immunodeficiency virus 1, read-out: IC90 (concentration inhibiting virus replication by 90%). As to the method: Fresh PBMCs, seronegative for HIV and HBV, were isolated from screened donors (Interstate Blood Bank, Inc. Memphis, Tenn.). Cells were pelleted/washed 2-3 times by low speed centrifugation and re-suspension in PBS to remove contaminating platelets. […] Banded PBMCs were gently aspirated from the resulting interface and subsequently washed with PBS by low speed centrifugation. […] The cells were allowed to incubate at 37° C. […] IL-2 is included in the culture medium to maintain the cell division initiated by the PHA mitogenic stimulation. PBMCs were maintained in this with bi-weekly medium changes until used in the assay protocol. Cells were kept in culture for a maximum of two weeks before being deemed too old for use in assays and discarded. Monocytes were depleted from the culture as the result of adherence to the tissue culture flask.
Tritiated thymidine triphosphate (^3H-TTP, 80 Ci/mmol, NEN) was received in 1:1 dH2O:Ethanol at 1 mCi/mL. Poly rA:oligo dT template:primer (Pharmacia) was prepared as a stock solution, followed by aliquoting and storage at −20° C. The RT reaction buffer was prepared fresh on a daily basis. The final reaction mixture was prepared by combining ^3H-TTP, dH2O, poly rA:oligo dT stock and reaction buffer. This reaction mixture was placed in a round bottom microtiter plate and supernatant containing virus was added and mixed. The plate was incubated at 37° C. for 60 minutes. Following incubation, the reaction volume was spotted onto DE81 filter-mats (Wallac), in a sodium phosphate buffer or 2×SSC (Life Technologies). Next they were washed in distilled water, in 70% ethanol, and then dried. Incorporated radioactivity (counts per minute, CPM) was quantified using standard liquid scintillation techniques.

Another data set concerns the target CDK7/cyclin H (Homo sapiens, UniProt P50613). Description: CDK7 assay (CTD peptide substrate). In kind it is biochemical. As to the method:
CTD peptide substrate (biotinyl-Ahx-(Tyr-Ser-Pro-Thr-Ser-Pro-Ser)4-NH2; 1-2 mg/mL) and recombinant human CDK7/cyclin H, CDK9/cyclin T1, or CDK9/cyclin K (0.5-2 μg) were incubated for 45 min at 30° C. in the presence of varying amounts of test compound in 20 mM MOPS pH 7.2, 25 mM β-glycerophosphate, 5 mM EGTA, 1 mM DTT, 1 mM sodium vanadate, 15 mM MgCl2, and 100 μM ATP (containing a trace amount of ^32PγATP) in a total volume of 25 μL in a 96-well microtiter plate. The reaction was stopped by placing the plate on ice for 2 min. Avidin (50 μg) was added to each well, and the plate was incubated at room temp for 30 min. The samples were transferred to a 96-well P81 filter plate, and washed (4×200 μL per well) with 75 mM phosphoric acid. Microscint 40 scintillation liquid (50 μL) was added to each well, and the amount of ^32P incorporation for each sample was measured using a Packard Topcount microplate scintillation counter.

A further data set has as its target CDK2/cyclin A (Homo sapiens, UniProt P24941). The experiment in a line: CDK2/cyclin A kinase assay.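 Also: Read-out is incorporated radioactivity retained on P81 filter plates and quantified by scintillation counting.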 The class given is biochemical.
Where [2] appears, read: Table 3, read-out: Average IC50 CDK9 cyclin T1.
Setting [3] is: Table 3, read-out: Average IC50 CDK4 cyclin D1.
Setting [4] is: Table 3, read-out: Average IC50 CDK2 cyclin E1.
Where [5] appears, read: Table 3, read-out: Average IC50 CDK7 cyclin H.
Setting [6] is: Table 3, read-out: Average IC50 CDK2 cyclin A2.
The mark [7] stands for this setting: Table 4, read-out: Kinase Inhibition IC50 CDK9-cyclin T1.
The mark [8] stands for this setting: Table 4, read-out: Kinase Inhibition IC50 CDK4-cyclin D1.
Setting [9] is: Table 4, read-out: Kinase Inhibition IC50 CDK2-cyclin E.
Setting [10] is: Table 4, read-out: Kinase Inhibition IC50 CDK7-cyclin H.
Where [11] appears, read: Table 4, read-out: Kinase Inhibition IC50 CDK2-cyclin A.

Chain of CDK9/cyclin T1 (P50750 whole entry): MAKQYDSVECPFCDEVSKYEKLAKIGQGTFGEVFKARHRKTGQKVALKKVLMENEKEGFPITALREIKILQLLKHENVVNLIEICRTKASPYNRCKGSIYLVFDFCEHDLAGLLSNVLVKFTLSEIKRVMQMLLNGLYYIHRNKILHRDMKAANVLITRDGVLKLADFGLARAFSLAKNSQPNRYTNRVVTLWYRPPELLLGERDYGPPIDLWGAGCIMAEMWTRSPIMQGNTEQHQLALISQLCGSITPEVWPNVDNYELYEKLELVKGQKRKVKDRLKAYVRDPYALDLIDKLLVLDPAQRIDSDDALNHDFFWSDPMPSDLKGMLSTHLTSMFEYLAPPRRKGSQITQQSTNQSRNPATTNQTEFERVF
Chain of CDK9/cyclin T1 (O60563 whole entry partner): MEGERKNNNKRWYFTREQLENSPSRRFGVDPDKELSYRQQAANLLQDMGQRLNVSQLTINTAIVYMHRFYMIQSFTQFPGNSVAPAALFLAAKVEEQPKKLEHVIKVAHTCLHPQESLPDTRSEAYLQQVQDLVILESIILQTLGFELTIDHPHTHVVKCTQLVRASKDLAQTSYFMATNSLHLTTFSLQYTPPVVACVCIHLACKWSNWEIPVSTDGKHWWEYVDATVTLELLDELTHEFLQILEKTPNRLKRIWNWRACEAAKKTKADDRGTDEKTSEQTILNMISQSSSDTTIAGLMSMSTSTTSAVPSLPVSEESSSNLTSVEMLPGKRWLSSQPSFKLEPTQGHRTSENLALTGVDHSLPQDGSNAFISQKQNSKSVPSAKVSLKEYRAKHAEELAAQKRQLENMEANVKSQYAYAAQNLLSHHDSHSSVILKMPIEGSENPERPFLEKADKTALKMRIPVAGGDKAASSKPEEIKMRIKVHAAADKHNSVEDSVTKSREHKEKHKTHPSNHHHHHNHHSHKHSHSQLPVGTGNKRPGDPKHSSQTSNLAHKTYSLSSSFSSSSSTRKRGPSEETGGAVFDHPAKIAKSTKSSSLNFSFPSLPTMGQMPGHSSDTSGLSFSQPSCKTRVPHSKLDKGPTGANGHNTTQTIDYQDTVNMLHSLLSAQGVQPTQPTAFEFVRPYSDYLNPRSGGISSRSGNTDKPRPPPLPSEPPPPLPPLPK
Chain of CDK7/cyclin H (P50613 whole entry): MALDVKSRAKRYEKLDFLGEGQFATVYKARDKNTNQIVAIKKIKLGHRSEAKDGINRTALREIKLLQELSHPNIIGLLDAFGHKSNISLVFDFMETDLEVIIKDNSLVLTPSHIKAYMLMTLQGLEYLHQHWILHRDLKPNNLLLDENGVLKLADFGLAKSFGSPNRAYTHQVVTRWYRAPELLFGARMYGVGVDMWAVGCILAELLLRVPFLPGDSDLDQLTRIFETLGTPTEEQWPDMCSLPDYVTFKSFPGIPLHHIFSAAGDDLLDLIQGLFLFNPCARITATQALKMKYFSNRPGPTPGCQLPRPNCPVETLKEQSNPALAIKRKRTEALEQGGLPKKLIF
Chain of CDK7/cyclin H (P51946 whole entry partner): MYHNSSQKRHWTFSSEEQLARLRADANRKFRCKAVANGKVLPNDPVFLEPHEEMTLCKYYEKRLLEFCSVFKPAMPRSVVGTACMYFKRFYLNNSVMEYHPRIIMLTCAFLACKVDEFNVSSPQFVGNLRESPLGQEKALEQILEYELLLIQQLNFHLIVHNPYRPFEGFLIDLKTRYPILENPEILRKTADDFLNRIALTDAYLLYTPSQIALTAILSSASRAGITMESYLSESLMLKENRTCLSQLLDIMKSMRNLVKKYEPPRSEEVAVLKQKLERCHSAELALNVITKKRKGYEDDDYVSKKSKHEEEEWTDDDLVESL
Chain of CDK4/Cyclin D1 (P11802 whole entry, species assumed): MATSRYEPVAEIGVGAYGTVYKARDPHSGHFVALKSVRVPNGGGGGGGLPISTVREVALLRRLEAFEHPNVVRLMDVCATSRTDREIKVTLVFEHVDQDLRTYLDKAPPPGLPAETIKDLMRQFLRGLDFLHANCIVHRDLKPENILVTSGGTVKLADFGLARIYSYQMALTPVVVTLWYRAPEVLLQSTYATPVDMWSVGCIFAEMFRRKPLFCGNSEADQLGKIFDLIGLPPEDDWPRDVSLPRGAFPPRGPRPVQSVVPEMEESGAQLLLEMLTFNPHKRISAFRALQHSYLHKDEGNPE
Chain of CDK4/Cyclin D1 (P24385 whole entry partner, species assumed): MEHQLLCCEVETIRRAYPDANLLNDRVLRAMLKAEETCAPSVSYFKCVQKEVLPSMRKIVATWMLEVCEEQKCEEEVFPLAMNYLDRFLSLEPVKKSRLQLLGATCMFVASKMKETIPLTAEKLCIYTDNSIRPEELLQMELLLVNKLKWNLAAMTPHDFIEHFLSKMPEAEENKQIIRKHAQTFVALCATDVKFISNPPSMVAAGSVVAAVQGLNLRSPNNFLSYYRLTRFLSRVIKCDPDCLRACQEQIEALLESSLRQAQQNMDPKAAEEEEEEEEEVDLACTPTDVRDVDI
Chain of CDK1/Cyclin B (P06493 whole entry, species assumed): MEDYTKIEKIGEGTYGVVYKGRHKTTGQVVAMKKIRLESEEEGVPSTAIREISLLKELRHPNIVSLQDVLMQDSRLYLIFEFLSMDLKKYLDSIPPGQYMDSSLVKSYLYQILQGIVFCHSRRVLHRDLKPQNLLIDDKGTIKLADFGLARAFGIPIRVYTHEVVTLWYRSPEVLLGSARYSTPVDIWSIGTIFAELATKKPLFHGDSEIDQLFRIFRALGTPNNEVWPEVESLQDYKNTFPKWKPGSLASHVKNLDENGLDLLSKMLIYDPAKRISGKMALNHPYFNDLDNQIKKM
Chain of CDK1/Cyclin B (P14635 whole entry partner, species assumed): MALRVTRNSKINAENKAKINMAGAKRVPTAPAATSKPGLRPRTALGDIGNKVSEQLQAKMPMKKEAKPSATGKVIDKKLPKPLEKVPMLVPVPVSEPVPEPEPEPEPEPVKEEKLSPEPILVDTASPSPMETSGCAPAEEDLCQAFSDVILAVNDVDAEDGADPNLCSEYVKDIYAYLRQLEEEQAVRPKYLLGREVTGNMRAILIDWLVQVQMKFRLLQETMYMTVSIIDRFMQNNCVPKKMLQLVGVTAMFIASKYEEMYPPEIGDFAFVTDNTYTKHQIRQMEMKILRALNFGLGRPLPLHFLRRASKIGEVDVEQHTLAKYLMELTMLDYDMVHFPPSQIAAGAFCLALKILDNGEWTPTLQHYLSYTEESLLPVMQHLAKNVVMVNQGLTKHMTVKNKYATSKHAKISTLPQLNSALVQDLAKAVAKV
Chain of ERK2 (P28482 whole entry, species assumed): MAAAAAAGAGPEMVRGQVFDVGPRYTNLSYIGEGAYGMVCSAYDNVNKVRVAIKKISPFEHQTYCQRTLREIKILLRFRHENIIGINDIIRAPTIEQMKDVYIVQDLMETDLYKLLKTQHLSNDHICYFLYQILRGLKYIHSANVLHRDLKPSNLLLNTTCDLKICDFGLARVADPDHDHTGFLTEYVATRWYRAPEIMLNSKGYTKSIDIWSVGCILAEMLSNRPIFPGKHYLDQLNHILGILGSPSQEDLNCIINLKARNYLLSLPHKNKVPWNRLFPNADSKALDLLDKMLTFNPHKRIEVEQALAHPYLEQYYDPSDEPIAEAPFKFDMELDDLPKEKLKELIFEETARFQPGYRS
Chain of SAPK2a (Q16539 whole entry, species assumed): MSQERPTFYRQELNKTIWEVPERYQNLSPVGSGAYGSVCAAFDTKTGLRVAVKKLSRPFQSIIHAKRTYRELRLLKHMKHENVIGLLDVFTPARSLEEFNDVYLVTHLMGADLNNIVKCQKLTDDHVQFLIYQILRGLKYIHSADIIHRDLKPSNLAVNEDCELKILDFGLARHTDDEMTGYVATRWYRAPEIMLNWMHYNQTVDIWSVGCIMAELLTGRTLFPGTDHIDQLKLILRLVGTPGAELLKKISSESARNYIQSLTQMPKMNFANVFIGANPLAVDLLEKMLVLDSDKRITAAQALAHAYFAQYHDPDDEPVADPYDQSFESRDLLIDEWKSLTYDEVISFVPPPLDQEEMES
Description for CDK1/Cyclin B: His-tagged CDK2/Cyclin E and CDK1/Cyclin B may be co-expressed and PKCα singularly expressed in Sf 9 insect cells infected with the appropriate baculovirus constructs. The cells are harvested two days after infection by low speed centrifugation and the proteins purified from the insect cell pellets by Metal-chelate chromatography. Briefly, the insect cell pellet is lysed in Buffer A (10 mM Tris-HCl, pH 8.0, 150 mM NaCl, 0.02% NP40 and 5 mM β-marcaptoethanol, 1 mM NaF. 1 mM Na3VO4 and Protease Inhibitors Coctail (Sigma) containing AEBSF, pepstatin A, E 64, bestatin, leupeptin) by sonication. The soluble fraction is cleared by centrifugation and loaded onto Ni-NTA-Agarose (Quiagen). Non bound proteins were washed off with 300 mM NaCl, 5-15 mM Imidazole in Buffer A and the bound proteins eluted with 250 mM Imidazole in Buffer A. The purified proteins are extensively dialyzed against Storage buffer (20 mM HEPES pH 7.4, 50 mM NaCl, 2 mM DTT, 1 mM EDTA, 1 mM EGTA, 0.02% NP40, 10% v/v Glycerol) aliquoted and stored at −70° C.
Description for CDK2/cyclin A: Reactions were stopped on ice, followed by filtration through p81 filterplates (Whatman Polyfiltronics, Kent, UK). After washing 3 times with 75 mM orthophosphoric acid, plates were dried, scintillant added and incorporated radioactivity measured in a scintillation counter (TopCount, Packard Instruments, Pangboume, Berks, UK).

Take `COc1ccc(Nc2nccc(-c3sc(C)nc3C)n2)cc1` [Compound 26, [4-(2,4-Dimethyl-thiazol-5-yl)-pyrimidin-2-yl]-(4-methoxy-phenyl)-amine]: the IC50 on Akt/PKB is above 50 µM; against CDK1/Cyclin B, 9000 nM; against SAPK2a, 45 µM; at CDK4/Cyclin D1 (Table 2, read-out: Average IC50 CDK4 cyclin D1), 2400 nM; with CaMKII, above 50 µM; at ERK2, above 50 µM. Besides, the IC50 at PKC was above 50 µM.
A word on the CC50: it is the concentration that lowers cell viability or growth by half. Higher therefore signals lower toxicity to the cells. In the case of `Cc1nc(C)c(-c2ccnc(Nc3ccc(O)cc3)n2)s1` [Compound 28, 4-[4-(2,4-Dimethyl-thiazol-5-yl)-pyrimidin-2-ylamino]-phenol], in the data set with HIV-1, the “anti-viral effectiveness as demonstrated by cell-based assays” value (“anti-viral effectiveness as demonstrated” for short) is listed as “particularly effective anti-viral agents”. For the same compound, the IC50 on CDK1/Cyclin B turned out to be 1800 nM; on CDK9/cyclin T1 (setting [2]) it was 460 nM; at CDK4/Cyclin D1 (setting [3]), 600 nM; at CDK2/Cyclin E (setting [4]), 280 nM; in the data set with HIV-1RoJo/PBMC, 280 nM; on CDK7/cyclin H (setting [5]), 2400 nM. For the same compound, the CC50 at 7 days in data set [1] (HIV-1RoJo/PBMC) came to 22 µM. Besides, the “TI (therapeutic index: TC50/IC50)” value with HIV-1RoJo/PBMC was 80. In the data set on HIV-1RoJo/PBMC, the IC90 turned out to be 21000 nM.
On to `CNc1nc(C)c(-c2ccnc(Nc3ccc(F)cc3)n2)s1` [Compound 47, (4-Fluoro-phenyl)-[4-(4-methyl-2-methylamino-thiazol-5-yl)-pyrimidin-2-yl]-amine], for which, in the data set with HIV-1, the “anti-viral effectiveness as demonstrated” value is “particularly effective anti-viral agents”. The IC50 at CDK9/cyclin T1 (setting [2]) amounted to 82 nM. This compound came in with a CC50 at 7 days in data set [1] (HIV-1RoJo/PBMC) of 6.8 µM. The IC50 on CDK2/Cyclin E (setting [4]) turned out to be 37 nM. Further, in the data set with HIV-1RoJo/PBMC, the “TI (therapeutic index: TC50/IC50)” value stood at 34, the IC50 is 200 nM and the IC90 turned out to be 1200 nM.
For the compound `CNc1nc(C)c(-c2ccnc(Nc3cccc(O)c3)n2)s1` [Compound 70, 3-[4-(4-Methyl-2-methylamino-thiazol-5-yl)-pyrimidin-2-ylamino]-phenol], the “anti-viral effectiveness as demonstrated” value in the data set on HIV-1 is “particularly effective anti-viral agents”. Besides, the IC50 at CDK9/cyclin T1 (setting [2]) worked out at 48 nM; at CDK2/Cyclin E (setting [4]), 270 nM; with HIV-1RoJo/PBMC it was 630 nM; on CDK7/cyclin H (setting [5]) it was 3400 nM. For the same compound, the CC50 at 7 days in data set [1] (HIV-1RoJo/PBMC) came to 2.7 µM. Also, the “TI (therapeutic index: TC50/IC50)” value with HIV-1RoJo/PBMC is reported as 4.3. For the same compound, the IC90 in the data set on HIV-1RoJo/PBMC was 2600 nM.
Turning to `Cc1nc(C)c(-c2ccnc(Nc3ccc(N(C)C)cc3)n2)s1` [Compound 103, N,N-Dimethyl-N′-[4-(2,4-dimethyl-thiazol-5-yl)-pyrimidin-2-yl]-benzene-1,4-diamine], the “anti-viral effectiveness as demonstrated” value with HIV-1 is “particularly effective anti-viral agents”. Moreover, the IC50 came to 7300 nM at CDK1/Cyclin B, 1800 nM at CDK9/cyclin T1 (setting [2]) and 11000 nM at CDK7/cyclin H (setting [5]). The values for the CC50 at 7 days in data set [1] (HIV-1RoJo/PBMC) and in data set [1] (HIV-1WeJo/PBMC) were above 100 µM and 0.8 µM, respectively.
Regarding `COc1ccc(Nc2nccc(-c3sc(C)nc3C)n2)cc1OC` [Compound 125, (3,4-Dimethoxy-phenyl)-[4-(2,4-dimethyl-thiazol-5-yl)-pyrimidin-2-yl]-amine], the “anti-viral effectiveness as demonstrated” value in the data set with HIV-1 is reported as “particularly effective anti-viral agents”. Besides, the IC50 against CDK1/Cyclin B came out at 250 nM; on CDK9/cyclin T1 (setting [2]), 590 nM; on CDK4/Cyclin D1 (setting [3]), 1100 nM; at CDK2/Cyclin E (setting [4]), 33 nM; in the data set with HIV-1RoJo/PBMC, 820 nM; at CDK7/cyclin H (setting [5]), 5900 nM. Also, the IC50 on CDK2/cyclin A (setting [6]) was 260 nM. Besides, the CC50 at 7 days in data set [1] (HIV-1RoJo/PBMC) stood at 27 µM. Further, in the data set on HIV-1RoJo/PBMC, the “TI (therapeutic index: TC50/IC50)” value is on record as 33. For the same compound, in the data set with HIV-1RoJo/PBMC, the IC90 was 970 nM.
With `Cc1nc(N(C)C)sc1-c1ccnc(Nc2cccc([N+](=O)[O-])c2)n1` [Compound 140, [4-(2-Dimethylamino-4-methyl-thiazol-5-yl)-pyrimidin-2-yl]-(3-nitro-phenyl)-amine], the IC50 was 49000 nM against CDK1/Cyclin B; 7100 nM on CDK9/cyclin T1 (setting [2]); 105000 nM on CDK4/Cyclin D1 (setting [3]); 480 nM at CDK2/Cyclin E (setting [4]); above 100000 nM on CDK7/cyclin H (setting [5]); 1800 nM at CDK2/cyclin A (setting [6]).
With `Cc1nc(N)sc1-c1ccnc(Nc2cccc(N)c2)n1` [Compound 149, N-[4-(2-Amino-4-methyl-thiazol-5-yl)-pyrimidin-2-yl]-benzene-1,3-diamine], the IC50 against CDK1/Cyclin B turned out to be 710 nM; at CDK9/cyclin T1 (setting [2]), 59 nM; on CDK4/Cyclin D1 (setting [3]), 500 nM; at CDK2/Cyclin E (setting [4]), 250 nM; on CDK7/cyclin H (setting [5]), 990 nM; at CDK2/cyclin A (setting [6]) it was 520 nM.
As for `Cc1c(-c2ccnc(Nc3cccc([N+](=O)[O-])c3)n2)sc(=O)n1C` [Compound 153, 3,4-Dimethyl-5-[2-(3-nitro-phenylamino)-pyrimidin-4-yl]-3H-thiazol-2-one], the IC50 on CDK1/Cyclin B was determined as 3000 nM; at CDK9/cyclin T1 (setting [7]) it was 2.2 nM; on CDK4/Cyclin D1 (setting [8]), 560 nM; on CDK2/Cyclin E (setting [9]), 610 nM; at CDK7/cyclin H (setting [10]), 120 nM; on CDK2/cyclin A (setting [11]), 16 nM.
As for `Cc1ccc(Nc2nccc(-c3sc(=O)n(C)c3C)n2)cc1[N+](=O)[O-]` [Compound 163, 3,4-Dimethyl-5-[2-(4-methyl-3-nitro-phenylamino)-pyrimidin-4-yl]-3H-thiazol-2-one], the IC50 is 96 nM against CDK1/Cyclin B; 14 nM at CDK9/cyclin T1 (setting [7]); 110 nM on CDK4/Cyclin D1 (setting [8]); 36000 nM at CDK2/Cyclin E (setting [9]); 1.2 nM at CDK7/cyclin H (setting [10]); 84 nM at CDK2/cyclin A (setting [11]).
